The source of these data is patent US10988477B2 (Merck Patent GmbH, priority 2018, dated 2021).

A value given as a limit tells only on which side of the number the result lay.

Sequence of GCN2 kinase (Q9P2K8 whole entry): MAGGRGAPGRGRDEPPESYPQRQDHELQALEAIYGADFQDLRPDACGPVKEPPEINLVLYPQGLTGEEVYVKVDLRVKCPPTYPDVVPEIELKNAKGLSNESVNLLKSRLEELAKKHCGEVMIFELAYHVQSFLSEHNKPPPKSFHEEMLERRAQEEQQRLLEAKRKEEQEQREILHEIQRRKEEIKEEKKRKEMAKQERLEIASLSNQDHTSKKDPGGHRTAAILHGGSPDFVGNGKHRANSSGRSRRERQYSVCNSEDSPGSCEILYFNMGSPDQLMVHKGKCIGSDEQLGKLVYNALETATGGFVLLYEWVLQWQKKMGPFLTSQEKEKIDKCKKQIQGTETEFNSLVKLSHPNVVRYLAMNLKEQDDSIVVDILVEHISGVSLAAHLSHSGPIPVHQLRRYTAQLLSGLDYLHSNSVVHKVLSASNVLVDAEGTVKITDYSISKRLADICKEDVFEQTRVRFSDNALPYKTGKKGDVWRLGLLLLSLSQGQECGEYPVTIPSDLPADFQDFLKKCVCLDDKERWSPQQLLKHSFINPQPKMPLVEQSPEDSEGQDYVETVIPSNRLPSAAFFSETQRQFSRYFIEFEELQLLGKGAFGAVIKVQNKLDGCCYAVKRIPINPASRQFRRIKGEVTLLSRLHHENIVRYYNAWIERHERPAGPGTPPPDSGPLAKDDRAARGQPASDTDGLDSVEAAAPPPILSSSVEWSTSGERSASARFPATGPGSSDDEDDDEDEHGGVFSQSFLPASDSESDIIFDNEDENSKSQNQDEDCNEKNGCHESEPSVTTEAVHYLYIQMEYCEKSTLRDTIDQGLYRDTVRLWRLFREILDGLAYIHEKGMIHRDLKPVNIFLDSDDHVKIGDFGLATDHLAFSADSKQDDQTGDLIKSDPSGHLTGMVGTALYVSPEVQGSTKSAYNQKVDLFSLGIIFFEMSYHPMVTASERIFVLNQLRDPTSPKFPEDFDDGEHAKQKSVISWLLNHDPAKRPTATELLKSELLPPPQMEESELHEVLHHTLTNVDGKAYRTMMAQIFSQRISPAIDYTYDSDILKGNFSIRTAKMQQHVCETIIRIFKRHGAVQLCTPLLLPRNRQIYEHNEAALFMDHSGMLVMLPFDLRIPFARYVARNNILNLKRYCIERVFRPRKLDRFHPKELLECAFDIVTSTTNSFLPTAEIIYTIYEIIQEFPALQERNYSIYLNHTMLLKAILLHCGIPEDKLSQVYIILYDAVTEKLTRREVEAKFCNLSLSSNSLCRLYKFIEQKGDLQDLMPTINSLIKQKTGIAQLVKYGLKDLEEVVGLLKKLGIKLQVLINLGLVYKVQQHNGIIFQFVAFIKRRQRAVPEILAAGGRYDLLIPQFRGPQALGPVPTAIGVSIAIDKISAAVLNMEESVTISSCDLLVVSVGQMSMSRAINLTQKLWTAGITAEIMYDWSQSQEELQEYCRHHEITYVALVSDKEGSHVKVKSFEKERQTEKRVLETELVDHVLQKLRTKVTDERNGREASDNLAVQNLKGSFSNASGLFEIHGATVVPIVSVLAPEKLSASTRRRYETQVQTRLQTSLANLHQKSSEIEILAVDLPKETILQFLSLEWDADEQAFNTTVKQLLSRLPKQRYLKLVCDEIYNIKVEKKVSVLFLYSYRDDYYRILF

One test has as its target GCN2 kinase (Homo sapiens, UniProt Q9P2K8). The test is described as follows: GCN2 enzyme inhibition assay (Transcreener ADP2 fluorescence polarization). Format: biochemical. Particulars: Enzyme activity for compounds of Formula IV; Ki(app), 280 μM ATP, 25° C. In a few lines:
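ADP formation read by Transcreener FP after a 1 h, 25 °C kinase reaction containing 280 μM ATP, 200 μM (RS)7 substrate and 4 nM GCN2, pH 7.5 Tris buffer. Compounds (0–8 μM final) were added 10 min before ATP. Percent inhibition gave IC50 and apparent Ki via tight-binding fit.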
In general terms: Polarisation of emitted light reports the rotation of a fluorescent probe.
On to `NC(=O)C1CN(c2ccnc(-c3cnc4cnc(C(F)(F)F)cn34)n2)CCN1` (stereo not drawn) [IV-595, 4-(2-(6-(Trifluoromethyl)imidazo[1,2-a]pyrazin-3-yl)pyrimidin-4-yl)piperazine-2-carboxamide], for which the Ki lay within 100 to 1000 nM.
On to `NC(=O)C1CN(c2ccnc(-c3cnc4cnc(C(F)(F)F)cn34)n2)CCO1` (stereo not drawn) [IV-599, 4-(2-(6-(Trifluoromethyl)imidazo[1,2-a]pyrazin-3-yl)pyrimidin-4-yl)morpholine-2-carboxamide], for which the Ki was 100 to 1000 nM.
On the same count and under the same terms, to `NC(=O)CN1CCCN(c2ccnc(-c3cnc4cnc(C(F)(F)F)cn34)n2)CC1` [IV-566, 2-(4-(2-(6-(Trifluoromethyl)imidazo[1,2-a]pyrazin-3-yl)pyrimidin-4-yl)-1,4-diazepan-1-yl)acetamide] belongs 100 to 1000 nM; to `O=C1CN(c2ccnc(-c3cnc4cnc(C(F)(F)F)cn34)n2)CC2CCCCN12` (stereo not drawn) [IV-571, 2-(2-(6-(Trifluoromethyl)imidazo[1,2-a]pyrazin-3-yl)pyrimidin-4-yl)octahydro-4H-pyrido[1,2-a]pyrazin-4-one], 100 to 1000 nM; to `N#CC1CN(c2ccnc(-c3cnc4cnc(C(N)=O)cn34)n2)CCC1=O` (stereo not drawn) [IV-253, 3-(4-(3-Cyano-4-oxopiperidin-1-yl)pyrimidin-2-yl)imidazo[1,2-a]pyrazine-6-carboxamide], 10 to 100 nM.
The same measure, in the same setting: as for `C[C@H]1CN(c2ccnc(-c3cnc4cnc(C(F)(F)F)cn34)n2)C[C@@H](c2c[nH]cn2)O1` (racemic) [IV-380, Cis-2-(1H-Imidazol-4-yl)-6-methyl-4-(2-(6-(trifluoromethyl)imidazo[1,2-a]pyrazin-3-yl)pyrimidin-4-yl)morpholine], the figure is less than 10 nM.
On the same count and under the same terms, to `FC(F)(F)c1cn2c(-c3nccc(N4CCO[C@@H](c5ccccn5)C4)n3)cnc2cn1` [IV-722] belongs 100 to 1000 nM.
Turning to `FC(F)(F)c1cn2c(-c3nccc(N4CCOC(c5ccccn5)C4)n3)cnc2cn1` (stereo not drawn) [IV-717], the Ki was 100 to 1000 nM.
Still for that read-out and setting: as for `CC(=O)N1CCN(c2ccnc(-c3cnc4cnc(-c5cccnc5)cn34)n2)CC1` [IV-289, 1-(4-(2-(6-(Pyridin-3-yl)imidazo[1,2-a]pyrazin-3-yl)pyrimidin-4-yl)piperazin-1-yl)ethan-1-one], the figure is 100 to 1000 nM; as for `CC(C)(C)OC(=O)N1CCC2(CC1)CCN(c1ccnc(-c3cnc4cnc(C(F)F)cn34)n1)C2` [IV-133, tert-Butyl 2-(2-(6-(difluoromethyl)imidazo[1,2-a]pyrazin-3-yl)pyrimidin-4-yl)-2,8-diazaspiro[4.5]decane-8-carboxylate], 100 to 1000 nM.
The same measure, in the same setting: to `NC(=O)c1cn2c(-c3nccc(N4CCC5(CC4)OCCO5)n3)cnc2cn1` [IV-266, 3-(4-(1,4-Dioxa-8-azaspiro[4.5]decan-8-yl)pyrimidin-2-yl)imidazo[1,2-a]pyrazine-6-carboxamide] belongs 10 to 100 nM.
As for `O=C1CC(C2CCCN(c3ccnc(-c4cnc5cnc(C(F)(F)F)cn45)n3)C2)CN1` (stereo not drawn) [IV-663, 4-(1-(2-(6-(Trifluoromethyl)imidazo[1,2-a]pyrazin-3-yl)pyrimidin-4-yl)piperidin-3-yl)pyrrolidin-2-one], the Ki lay in the range of 100 to 1000 nM.
Still for that read-out and setting: as for `C[C@H]1[C@@H](C(N)=O)CCCN1c1ccnc(-c2cnc3cnc(C(F)(F)F)cn23)n1` (racemic) [IV-453, Cis-2-Methyl-1-(2-(6-(trifluoromethyl)imidazo[1,2-a]pyrazin-3-yl)pyrimidin-4-yl)piperidine-3-carboxamide], the figure is less than 10 nM; as for `CC1CC(C(N)=O)C(C)N(c2ccnc(-c3cnc4cnc(C(F)(F)F)cn34)n2)C1` (stereo not drawn) [IV-464, 2,5-Dimethyl-1-(2-(6-(trifluoromethyl)imidazo[1,2-a]pyrazin-3-yl)pyrimidin-4-yl)piperidine-3-carboxamide], less than 10 nM; as for `CC1CN(c2ccnc(-c3cnc4cnc(Br)cn34)n2)C(C)C(c2cn[nH]c2)N1` (single isomer, unassigned) [IV-287, 6-Bromo-3-(4-(2,5-dimethyl-3-(1H-pyrazol-4-yl)piperazin-1-yl)pyrimidin-2-yl)imidazo[1,2-a]pyrazine], 10 to 100 nM.
Same read-out and setting: to `CC(=O)NC1CCCN(c2ccnc(-c3cnc4cnc(C(F)(F)F)cn34)n2)C1` (stereo not drawn) [IV-530, N-(1-(2-(6-(Trifluoromethyl)imidazo[1,2-a]pyrazin-3-yl)pyrimidin-4-yl)piperidin-3-yl)acetamide] belongs 100 to 1000 nM; to `O=C1CCCC2CN(c3ccnc(-c4cnc5cnc(Cl)cn45)n3)CCN12` (single isomer, unassigned) [IV-294, 2-(2-(6-Chloroimidazo[1,2-a]pyrazin-3-yl)pyrimidin-4-yl)octahydro-6H-pyrido[1,2-a]pyrazin-6-one], 10 to 100 nM.
On the same count and under the same terms, to `Cc1nc(C2CN(c3ccnc(-c4cnc5cnc(C(F)(F)F)cn45)n3)CCO2)n[nH]1` (stereo not drawn) [IV-661, 2-(5-Methyl-1H-1,2,4-triazol-3-yl)-4-(2-(6-(trifluoromethyl)imidazo[1,2-a]pyrazin-3-yl)pyrimidin-4-yl)morpholine] belongs 100 to 1000 nM; to `O=C1NCCN2CCN(c3ccnc(-c4cnc5cnc(C(F)(F)F)cn45)n3)CC12` (stereo not drawn) [IV-568, 8-(2-(6-(Trifluoromethyl)imidazo[1,2-a]pyrazin-3-yl)pyrimidin-4-yl)hexahydro-2H-pyrazino[1,2-a]pyrazin-1(6H)-one], 100 to 1000 nM.
The molecule `CS(=O)(=O)CC1CCN(c2ccnc(-c3cnc4cnc(C(F)(F)F)cn34)n2)C1` (stereo not drawn) [IV-604, 3-(4-(3-((methylsulfonyl)methyl)pyrrolidin-1-yl)pyrimidin-2-yl)-6-(trifluoromethyl)imidazo[1,2-a]pyrazine] gave a Ki of 100 to 1000 nM.
The same measure, in the same setting: as for `Cc1nc(C2CCN(c3ccnc(-c4cnc5cnc(C(F)(F)F)cn45)n3)C2)n[nH]1` (stereo not drawn) [IV-641, 3-(4-(3-(5-Methyl-1H-1,2,4-triazol-3-yl)pyrrolidin-1-yl)pyrimidin-2-yl)-6-(trifluoromethyl)imidazo[1,2-a]pyrazine], the figure is 100 to 1000 nM; as for `CC1CN(c2nc(-c3cnc4cnc(C(F)(F)F)cn34)ncc2F)C(C)C(c2cn[nH]c2)N1` (single isomer, unassigned) [IV-324, 3-(4-(2,5-Dimethyl-3-(1H-pyrazol-4-yl)piperazin-1-yl)-5-fluoropyrimidin-2-yl)-6-(trifluoromethyl)imidazo[1,2-a]pyrazine], 10 to 100 nM; as for `NS(=O)(=O)c1ccc(C(=O)N[C@H]2CCCN(c3ccnc(-c4cnc5cnc(C(F)(F)F)cn45)n3)C2)o1` [IV-735], more than 1000 nM.
On to `NS(=O)(=O)c1cc2c(s1)CCN(c1ccnc(-c3cnc4cnc(C(F)(F)F)cn34)n1)C2` [IV-715], for which the Ki lay in the range of 100 to 1000 nM.
Molecule `NC(=O)CC1CCCN(c2ccnc(-c3cnc4cnc(C(F)(F)F)cn34)n2)C1` (stereo not drawn) [IV-529, 2-(1-(2-(6-(Trifluoromethyl)imidazo[1,2-a]pyrazin-3-yl)pyrimidin-4-yl)piperidin-3-yl)acetamide] returned a Ki of 100 to 1000 nM.
For `CN1CC2(CCN(c3ccnc(-c4cnc5cnc(C(F)(F)F)cn45)n3)C2)OCC1=O` (stereo not drawn) [IV-565, 9-Methyl-2-(2-(6-(trifluoromethyl)imidazo[1,2-a]pyrazin-3-yl)pyrimidin-4-yl)-6-oxa-2,9-diazaspiro[4.5]decan-8-one], the Ki lay in the range of 100 to 1000 nM.
Same read-out and setting: to `NC(=O)c1cn2c(-c3nccc(N4CCC(CO)CC4)n3)cnc2cn1` [IV-243, 3-(4-(4-(Hydroxymethyl)piperidin-1-yl)pyrimidin-2-yl)imidazo[1,2-a]pyrazine-6-carboxamide] belongs 10 to 100 nM.

The same test, now with this note: compounds of Formula II; 280 μM ATP, 4 nM GCN2 kinase.
The molecule `CS(=O)(=O)NCC1CN(c2cc(-c3cnc4ccc(C(F)F)nn34)ncn2)C[C@@H]2C[C@H](F)CN12` (stereo partly drawn) [II-568, N-(((7S,8aS)-2-(6-(6-(Difluoromethyl)imidazo[1,2-b]pyridazin-3-yl)pyrimidin-4-yl)-7-fluorooctahydropyrrolo[1,2-a]pyrazin-4-yl)methyl)methanesulfonamide] showed a Ki of less than 10 nM.
Still for that read-out and setting: to `CCC(NS(C)(=O)=O)C1CN(c2cc(-c3cnc4ccc(C(F)F)nn34)ncn2)CCO1` (stereo not drawn) [II-571, N-(1-(4-(6-(6-(Difluoromethyl)imidazo[1,2-b]pyridazin-3-yl)pyrimidin-4-yl)morpholin-2-yl)propyl)methanesulfonamide] belongs 10 to 1000 nM; to `O=C(O)[C@@H]1CCCN(c2cc(-c3cnc4ccc(C(F)F)nn34)ncn2)C1` [II-508, (R)-1-(6-(6-(Difluoromethyl)imidazo[1,2-b]pyridazin-3-yl)pyrimidin-4-yl)piperidine-3-carboxylic acid], 10 to 1000 nM.
Same read-out and setting: to `CC1CCC(NS(C)(=O)=O)CN1c1cc(-c2cnc3ccc(C(F)F)nn23)ncn1` (stereo not drawn) [II-551, N-(1-(6-(6-(Difluoromethyl)imidazo[1,2-b]pyridazin-3-yl)pyrimidin-4-yl)-6-methylpiperidin-3-yl)methanesulfonamide] belongs 10 to 1000 nM; to `CC1CCN(c2cc(-c3cnc4ccc(C(F)F)nn34)ncn2)CC1N=S(C)(C)=O` (single isomer, unassigned) [II-633, ((1-(6-(6-(Difluoromethyl)imidazo[1,2-b]pyridazin-3-yl)pyrimidin-4-yl)-4-methylpiperidin-3-yl)imino)dimethyl-λ^6-sulfanone], 10 to 1000 nM.
The same measure, in the same setting: to `CC1CC(N=S(C)(C)=O)CN(c2cc(-c3cnc4ccc(C#N)nn34)ncn2)C1` (stereo not drawn) [II-703, 3-(6-(3-((Dimethyl(oxo)-λ^6-sulfanylidene)amino)-5-methylpiperidin-1-yl)pyrimidin-4-yl)imidazo[1,2-b]pyridazine-6-carbonitrile] belongs less than 10 nM; to `Cc1noc([C@H]2CN(c3cc(-c4cnc5ccc(C(F)(F)F)nn45)ccn3)C[C@@H](C)O2)n1` [II-744], 10 to 1000 nM.
`N#CCC1CN(c2cc(-c3cnc4ccc(C(F)F)nn34)ncn2)CCO1` (stereo not drawn) [II-512, 2-(4-(6-(6-(Difluoromethyl)imidazo[1,2-b]pyridazin-3-yl)pyrimidin-4-yl)morpholin-2-yl)acetonitrile]: the Ki lay in the range of 10 to 1000 nM.
Still for that read-out and setting: as for `CC(=O)N1CCN(c2cc(-c3cnc4ccc(Cl)nn34)ncn2)CC1` [II-590, 1-[4-[6-(6-Chloroimidazo[1,2-b]pyridazin-3-yl)pyrimidin-4-yl]piperazin-1-yl]ethanone], the figure is more than 1000 nM.
